The values below come from patent US8158776B2, “P2Y6 receptor agonists for treating lung diseases” (Inspire Pharmaceuticals, Inc., priority 2005, dated 2012).

Common to all, as to assay type: cell-based
One assay addresses T1, P2Y6 (Homo sapiens, UniProt Q15077).
T1 construct: expressed in transfected cells; host or cells: human astrocytoma 1321N1 cells
Put plainly: Intracellular calcium mobilization (FLIPR, Fluo-3 AM) in 1321N1 cells expressing P2Y6. Particulars: 1321N1 cells expressing P2Y6, intracellular calcium. As to the method:
(§1) Human astrocytoma (1321N1) cells expressing P2Y1, P2Y2, P2Y4, and P2Y6 were grown to confluency in 96-well plates. Cells were loaded with a solution of Fluo-3 AM (2.5 μM final concentration) in an assay buffer consisting of 10 mM KCl, 118 mM NaCl, 2.5 mM CaCl2, 1 mM MgCl2, 20 mM HEPES, 10 mM glucose, pH 7.4. After a 60-minute incubation with Fluo-3 AM at 25° C., cells were washed and stimulated with serially diluted concentrations of compounds uridine 5′-diphosphate (UDP), P^1, P^3-(diuridine 5′-)triphosphate (UP3U) or P^1-(2′,3′-benzylacetal uridine 5′-)P^3-(uridine 5′-)triphosphate (mono-benzylacetal UP3U). Intracellular calcium levels were monitored in each well simultaneously by measuring the changes in fluorescence intensity using the FLIPR (Molecular Devices Corp., Sunnyvale, Calif.). Values for compounds UDP, UP3U, and mono-benzylacetal UP3U in Table 1 are presented as EC50 values corresponding to the concentration of an agonist that produces 50% of the maximum possible response.

The next assay deals with T2, P2Y1 (Homo sapiens, UniProt P47900).
T2 construct: expressed in transfected cells; host or cells: human astrocytoma 1321N1 cells
As to the kind of experiment: Intracellular calcium mobilization (FLIPR, Fluo-3 AM) in 1321N1 cells expressing P2Y1. Particulars: 1321N1 cells expressing P2Y1, intracellular calcium. As to the method:
as §1

The target in another assay is T3, P2Y2 (Homo sapiens, UniProt P41231).
T3 construct: expressed in transfected cells; host or cells: human astrocytoma 1321N1 cells
As to the kind of experiment: Intracellular calcium mobilization (FLIPR, Fluo-3 AM) in 1321N1 cells expressing P2Y2. Particulars: 1321N1 cells expressing P2Y2, intracellular calcium. As to the method: as §1

The target of another assay is T4, P2Y4 (Homo sapiens, UniProt P51582).
T4 construct: expressed in transfected cells; host or cells: human astrocytoma 1321N1 cells
As to the kind of experiment: Intracellular calcium mobilization (FLIPR, Fluo-3 AM) in 1321N1 cells expressing P2Y4. As to conditions: 1321N1 cells expressing P2Y4, intracellular calcium. As to the method: as §1

Where only a bound is given, the exact number is not on record here.

T1 sequence (Q15077 whole entry, species assumed): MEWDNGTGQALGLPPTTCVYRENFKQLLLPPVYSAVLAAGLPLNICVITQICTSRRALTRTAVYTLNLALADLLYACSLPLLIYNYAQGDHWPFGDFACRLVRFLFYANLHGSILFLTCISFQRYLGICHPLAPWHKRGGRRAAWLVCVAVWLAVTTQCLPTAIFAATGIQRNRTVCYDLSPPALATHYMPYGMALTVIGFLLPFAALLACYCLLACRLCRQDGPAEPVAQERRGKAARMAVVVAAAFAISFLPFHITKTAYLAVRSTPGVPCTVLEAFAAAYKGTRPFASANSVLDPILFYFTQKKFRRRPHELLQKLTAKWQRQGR
T2 sequence (P47900 whole entry, species assumed): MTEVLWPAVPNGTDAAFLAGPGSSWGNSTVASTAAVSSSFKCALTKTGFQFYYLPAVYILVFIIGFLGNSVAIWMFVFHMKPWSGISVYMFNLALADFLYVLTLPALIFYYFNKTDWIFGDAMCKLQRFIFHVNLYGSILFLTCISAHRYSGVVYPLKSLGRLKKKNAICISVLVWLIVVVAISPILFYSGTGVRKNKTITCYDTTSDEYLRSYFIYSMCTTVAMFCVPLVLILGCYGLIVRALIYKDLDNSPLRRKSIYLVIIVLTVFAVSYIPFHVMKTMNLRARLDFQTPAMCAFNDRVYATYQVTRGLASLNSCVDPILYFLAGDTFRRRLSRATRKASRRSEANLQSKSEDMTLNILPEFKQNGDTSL
T3 sequence (P41231 whole entry, species assumed): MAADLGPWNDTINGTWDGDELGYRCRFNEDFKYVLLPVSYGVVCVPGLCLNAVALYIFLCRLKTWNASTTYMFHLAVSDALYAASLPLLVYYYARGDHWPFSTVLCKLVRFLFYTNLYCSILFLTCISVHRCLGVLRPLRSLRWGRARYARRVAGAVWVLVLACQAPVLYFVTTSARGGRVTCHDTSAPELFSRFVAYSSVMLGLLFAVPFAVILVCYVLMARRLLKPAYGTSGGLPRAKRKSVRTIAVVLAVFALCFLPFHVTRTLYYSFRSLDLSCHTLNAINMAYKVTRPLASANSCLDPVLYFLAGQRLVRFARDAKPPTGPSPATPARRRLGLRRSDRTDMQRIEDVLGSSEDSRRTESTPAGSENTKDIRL
T4 sequence (P51582 whole entry, species assumed): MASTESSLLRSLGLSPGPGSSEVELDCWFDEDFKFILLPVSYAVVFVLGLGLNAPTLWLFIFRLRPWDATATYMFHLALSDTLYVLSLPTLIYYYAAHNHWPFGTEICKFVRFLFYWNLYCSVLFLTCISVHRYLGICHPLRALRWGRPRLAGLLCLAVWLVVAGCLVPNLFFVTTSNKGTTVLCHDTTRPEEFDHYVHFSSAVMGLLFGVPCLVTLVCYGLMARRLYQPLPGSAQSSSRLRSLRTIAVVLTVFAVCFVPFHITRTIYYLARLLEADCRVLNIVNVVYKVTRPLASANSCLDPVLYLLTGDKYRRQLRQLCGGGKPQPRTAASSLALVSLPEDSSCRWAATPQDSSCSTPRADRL

`O=c1ccn([C@@H]2O[C@H](COP(=O)(O)OP(=O)(O)O)[C@@H](O)[C@H]2O)c(=O)[nH]1` [UDP, uridine 5′-diphosphate]: the EC50 on P2Y6 was 0.5 µM; on P2Y1 it was above 100 µM; at P2Y2, 4.2 µM; on P2Y4 it was 9.48 µM.

For `O=c1ccn([C@@H]2O[C@H](COP(=O)(O)OP(=O)(O)OP(=O)(O)OC[C@H]3O[C@@H](n4ccc(=O)[nH]c4=O)[C@H](O)[C@@H]3O)[C@@H](O)[C@H]2O)c(=O)[nH]1` [UP3U, P^1, P^3-(diuridine 5′-)triphosphate], the EC50 at P2Y6 is 0.92 µM; at P2Y1 it was above 100 µM; at P2Y2, 13 µM; at P2Y4, above 100 µM.

`O=c1ccn([C@@H]2O[C@H](COP(=O)(O)OP(=O)(O)OP(=O)(O)OC[C@@H]3O[C@H](n4ccc(=O)[nH]c4=O)C4OC(Cc5ccccc5)OC43)C(O)C2O)c(=O)[nH]1` (stereo partly drawn) [mono-benzylacetal UP3U, P^1-(2′,3′-benzylacetaluridine 5′-)P^3-(uridine 5′-)triphosphate]: the EC50 at P2Y6 is 0.14 µM; at P2Y1, above 100 µM; on P2Y2, above 100 µM; at P2Y4, above 100 µM.
